According to article PMC10721329, “Quisinostat is a brain-penetrant radiosensitizer in glioblastoma” (JCI Insight, 2023):
“And” between values parts separate entries of the source, which are not always exact repeats. Identical values can stand only once.

Tests used:
HDAC1 = conditions: cited from earlier work
orthotopic GB126 tumors [1] = assay: Bioluminescence imaging of tumor burden, orthotopic GB126 PDX; format: in vivo, athymic nude mice; conditions: individual mice
Method: We additionally questioned whether QST, either alone or in combination with IR, could extend the survival of tumor-bearing mice. In this study, mice received the same treatments described above, but after completion of the 1-week IR regimen, mice continued to receive QST at 10 mg/kg or vehicle solution on MWF until study completion, as determined by large tumor burden and onset of neurological symptoms (Figure 8A). […] Although QST monotherapy slowed tumor growth, median survival for the QST-treated mice was only 4 days longer than for the vehicle-treated mice (P < 0.01), and IR alone increased median survival by 17 days (P < 0.001; Figure 8D). However, combining QST with IR led to a significant increase in median survival (37 days, P < 0.001) compared with the vehicle (Figure 8D). […]
Rad225XL irradiator (Precision X -Ray). […]
Live Bioluminescence Imaging
Two weeks after implantation, mice were examined for tumor growth by monitoring bioluminescence every 7 days using the IVIS Xenogen Spectrum platform. D -Luciferin Potassium Salt (Gold Biotechnology) was dissolved in PBS at a final concentration of 15 mg/mL. All mice were weighed each week and administered D -Luciferin via an intraperitoneal injection (10 μl/g). Fifteen minutes after injection, the mice were sedated using gaseous isoflurane (Piramal) and placed inside an IVIS Spectrum in vivo imaging system (Perkin Elmer) […]
for bioluminescence imaging. The total flux (photons/second) within the region of interest was calculated using the Living Image software 4.5 (Perkin Elmer).
Preparation of QST for In Vivo Use
For in vivo preparation, QST was dissolved in 50% polyethylene glycol (PEG) 300, 50% sterile water solution for 10 mg/kg dosing. The suspension was then sonicated for 10 minutes to allow the drug to completely dissolve. Finally, the pH of both the drug and the vehicle solutions was adjusted to 7.4 before intraperitoneal dosing. […]
In Vivo Irradiation Studies
Intracranial or flank tumor–bearing nude mice were sedated with gaseous isoflurane before
IR. On the first week of treatment, 2 hours after treatment with QST or vehicle, the mice were […]

orthotopic GB126 tumors [2] = assay: RT-qPCR of neuronal genes in GB126 tumors; format: in vivo, athymic nude mice; conditions: relative to Vehicle mouse 1 = 1, individual mice
Method: Reverse Transcription Quantitative Polymerase Chain Reaction
Total RNA was extracted from orthotopic tumors by using the RNeasy Mini Kit (Qiagen) in accordance with the manufacturer’s instructions. RNA was quantified on a NanoDrop Spectrophotometer ([…]), and 1 μg of total RNA was used for complementary DNA synthesis by using the SuperScript VILO kit (Life Technologies). Quantitative polymerase chain reaction was performed using inventoried TaqMan assays for respective target genes and housekeeping control genes (18S) on the QuantStudio 6 Flex Real -Time PCR System (Life Technologies).
Fold change in gene expression was analyzed using the delta delta Ct method.

GB126 cells = assay: QST + IR sulforhodamine B cytotoxicity assay; format: cell-based, human; conditions: replicates
Method: (§1) There is preclinical evidence that HDACis may be effective in enhancing the sensitivity of tumor cells to IR therapy ([24], [28]–[31]). We hypothesized that the accumulation of DNA damage induced by QST, in combination with IR, may synergistically reduce GSC viability. To examine this hypothesis, we treated 2 cell lines (BT145 and GB126) with increasing nanomolar doses of QST (10–1000 nM) and increasing doses of IR (2–4 Gy) (Figure 4, A and B). […] We then analyzed our combinatorial dose-response cell viability data using SynergyFinder, an application that assigns synergy scores using various major reference models ([32]).
(§2) GSCs were seeded in laminin-coated tissue culture–treated 96-well plates (clear bottom, white plate; Corning) at a density of 1000–5000 cells per well (cell line dependent) in GSC media. U87-MG were seeded using their normal growth conditions without laminin (10% bovine calf serum in DMEM). All cells were incubated at 37°C and allowed to adhere overnight. The next day, cells were treated with incremental concentrations of QST (Selleckchem; 0, 10, 25, 50, 100, 250, 500, and 1000 nM) diluted in media. Cells treated without QST were treated with DMSO diluted in media. Following treatment with QST, cells were grown for 3 to 5 days (cell line dependent), and cell viability was measured and quantified. All cell viability measurements were performed using the CellTiter-Glo luminescent cell viability assay (Promega) following the manufacturer’s instructions. For the sulforhodamine B colorimetric assay for cytotoxicity, the protocol was performed as described elsewhere ([33]). All cell viability results represent the mean of at least 3 biological replicates, each containing 3 technical replicates.

BT145 cells = assay: QST + IR sulforhodamine B cytotoxicity assay; format: cell-based, human; conditions: replicates
Method: as §1, §2

[3] = Quisinostat log[nm] 1, 0 Gy, control 0 Gy = 1
[4] = Quisinostat log[nm] 1.39794, 0 Gy
[5] = Quisinostat log[nm] 1.39794, 2 Gy
[6] = Quisinostat log[nm] 1.39794, 4 Gy
[7] = Quisinostat log[nm] 1.69897, 0 Gy
[8] = Quisinostat log[nm] 1.69897, 2 Gy
[9] = Quisinostat log[nm] 1.69897, 4 Gy

Which results are given for `Cn1cc(CNCC2CCN(c3ncc(C(=O)NO)cn3)CC2)c2ccccc21` [QST, quisinostat]?
IC50 (HDAC1): […]; IVIS imaging, bioluminescence (orthotopic GB126 tumors [1]; Qstat 10 mg/kg + IR 6 Gy, day 0 post Tx start (baseline)): 75600000 photons/seconds and 79700000 photons/seconds and 125000000 photons/seconds and 47900000 photons/seconds and 137000000 photons/seconds and 47600000 photons/seconds and 28100000 photons/seconds and 33000000 photons/seconds and 18800000 photons/seconds and 23200000 photons/seconds; IVIS imaging, bioluminescence (orthotopic GB126 tumors [1]; Qstat 10 mg/kg + IR 6 Gy, day 8 post Tx start): 37000000 photons/seconds and 56500000 photons/seconds and 14000000 photons/seconds and 16000000 photons/seconds and 118000000 photons/seconds and 67200000 photons/seconds and 5460000 photons/seconds and 2880000 photons/seconds and 542000 photons/seconds and 178000000 photons/seconds; IVIS imaging, bioluminescence (orthotopic GB126 tumors [1]; Qstat 10 mg/kg + IR 6 Gy, day 29 post Tx start): 111000000 photons/seconds and 75900000 photons/seconds and 60800000 photons/seconds and 55400000 photons/seconds and 150000000 photons/seconds and 22000000 photons/seconds and 8210000 photons/seconds and 10600000 photons/seconds and 10200000 photons/seconds and 15700000 photons/seconds; IVIS imaging, bioluminescence (orthotopic GB126 tumors [1]; Qstat 10 mg/kg + IR 6 Gy, day 36 post Tx start): 9000000 photons/seconds and 4380000 photons/seconds and 371000000 photons/seconds and 40800000 photons/seconds and 426000000 photons/seconds and 6690000 photons/seconds and 51000000 photons/seconds and 114000000 photons/seconds and 111000000 photons/seconds; IVIS imaging, bioluminescence (orthotopic GB126 tumors [1]; Qstat 10 mg/kg + IR 6 Gy, day 43 post Tx start): 943000000 photons/seconds and 1020000000 photons/seconds and 359000000 photons/seconds and 413000000 photons/seconds and 832000000 photons/seconds and 252000000 photons/seconds (2×) and 865000000 photons/seconds and 139000000 photons/seconds and 55200000 photons/seconds; IVIS imaging, bioluminescence (orthotopic GB126 tumors [1]; Qstat 10 mg/kg + IR 6 Gy, day 50 post Tx start): 1010000000 photons/seconds and 2140000000 photons/seconds and 260000000 photons/seconds and 1180000000 photons/seconds and 4090000000 photons/seconds and 2810000000 photons/seconds and 808000000 photons/seconds and 15100000 photons/seconds and 286000000 photons/seconds; IVIS imaging, bioluminescence (orthotopic GB126 tumors [1]; Qstat 10 mg/kg + IR 6 Gy, day 57 post Tx start): 6040000000 photons/seconds and 4070000000 photons/seconds and 1070000000 photons/seconds and 2530000000 photons/seconds and 1020000000 photons/seconds and 1870000000 photons/seconds and 1150000000 photons/seconds; IVIS imaging, bioluminescence (orthotopic GB126 tumors [1]; Qstat 10 mg/kg alone, day 0 post Tx start (baseline), PDX model): 86400000 photons/seconds and 33100000 photons/seconds and 140000000 photons/seconds and 26400000 photons/seconds and 105000000 photons/seconds and 45000000 photons/seconds and 52600000 photons/seconds and 53600000 photons/seconds and 60100000 photons/seconds and 13600000 photons/seconds; IVIS imaging, bioluminescence (orthotopic GB126 tumors [1]; Qstat 10 mg/kg alone, day 8 post Tx start): 42100000 photons/seconds and 58500000 photons/seconds and 585000000 photons/seconds and 200000000 photons/seconds and 458000000 photons/seconds and 884000000 photons/seconds and 49000000 photons/seconds and 19500000 photons/seconds and 581000000 photons/seconds and 107000000 photons/seconds; IVIS imaging, bioluminescence (orthotopic GB126 tumors [1]; Qstat 10 mg/kg alone, day 15 post Tx start): 5290000 photons/seconds and 888000000 photons/seconds and 5530000 photons/seconds and 4270000 photons/seconds and 7590000 photons/seconds and 19400000 photons/seconds; IVIS imaging, bioluminescence (orthotopic GB126 tumors [1]; Qstat 10 mg/kg alone, day 29 post Tx start): 1550000000 photons/seconds and 10600000000 photons/seconds and 15100000000 photons/seconds and 7070000000 photons/seconds and 3880000000 photons/seconds and 387000000 photons/seconds and 12600000000 photons/seconds and 413000000 photons/seconds and 4430000000 photons/seconds; qPCR CECR2 expression (orthotopic GB126 tumors [2]; Combo (QST + IR)): 90.297 and 227.304 and 107.431; qPCR GABRA2 expression (orthotopic GB126 tumors [2]; Combo (QST + IR)): 62.6009 and 92.8255 and 56.6887; qPCR SCN3A expression (orthotopic GB126 tumors [2]; Combo (QST + IR)): 28.0147 and 63.295 and 75.3722; qPCR BDNF expression (orthotopic GB126 tumors [2]; QST + IR): 14.0587 and 9.35 and 2.8459; qPCR KCNQ3 expression (orthotopic GB126 tumors [2]; QST + IR): 9.67 and 10.8552 and 27.8625; qPCR NGFR expression (orthotopic GB126 tumors [2]; QST + IR): 3.525 and 9.249 and 10.5627; qPCR BDNF expression (orthotopic GB126 tumors [2]; QST): 5.022 and 6.518 and 12.9199; qPCR CECR2 expression (orthotopic GB126 tumors [2]; QST): 38.4564 and 79.55 and 112.554; qPCR GABRA2 expression (orthotopic GB126 tumors [2]; QST): 1.543 and 82.6227 and 31.8541; qPCR KCNQ3 expression (orthotopic GB126 tumors [2]; QST): 1.23 and 4.886 and 2.677; qPCR NGFR expression (orthotopic GB126 tumors [2]; QST): 13.22 and 5.955 and 12.7613; qPCR SCN3A expression (orthotopic GB126 tumors [2]; QST): 6.113 and 76.4987 and 9.293; SRB assay, relative signal (GB126 cells; [3]): […]; SRB assay, relative signal (GB126 cells; Quisinostat log[nm] 1, 2 Gy): 0.4678 and 0.5322 and 0.5047; SRB assay, relative signal (GB126 cells; Quisinostat log[nm] 1, 4 Gy): 0.3918 and 0.337 and 0.3993; SRB assay, relative signal (GB126 cells; [4]): 0.6332 and 0.6836 and 0.5963; SRB assay, relative signal (GB126 cells; [5]): 0.4122 and 0.4783 and 0.4726; SRB assay, relative signal (GB126 cells; [6]): […]; SRB assay, relative signal (GB126 cells; [7]): 0.574 and 0.5854 and 0.5737; SRB assay, relative signal (GB126 cells; [8]): […]; SRB assay, relative signal (GB126 cells; [9]): […]; SRB assay, relative signal (GB126 cells; Quisinostat log[nm] 2, 0 Gy): 0.4806 and 0.4569 and 0.5515; SRB assay, relative signal (GB126 cells; Quisinostat log[nm] 2, 2 Gy): […]; SRB assay, relative signal (GB126 cells; Quisinostat log[nm] 2, 4 Gy): […]; SRB assay, relative signal (BT145 cells; [3]): […]; SRB assay, relative signal (BT145 cells; Quisinostat log[nm] 1, 2 Gy): […]; SRB assay, relative signal (BT145 cells; Quisinostat log[nm] 1, 4 Gy): […]; SRB assay, relative signal (BT145 cells; [4]): 0.5611 and 0.5715 and 0.6072; SRB assay, relative signal (BT145 cells; [5]): […]; SRB assay, relative signal (BT145 cells; [6]): […]; SRB assay, relative signal (BT145 cells; [7]): 0.3909 and 0.4995 and 0.4801; SRB assay, relative signal (BT145 cells; [8]): […]; SRB assay, relative signal (BT145 cells; [9]): […]; SRB assay, relative signal (BT145 cells; Quisinostat log[nm] 2, 0 Gy): […]; SRB assay, relative signal (BT145 cells; Quisinostat log[nm] 2, 2 Gy): […]; SRB assay, relative signal (BT145 cells; Quisinostat log[nm] 2, 4 Gy): […]
